Results on five molecules are retold here after paper PMC7894401 (CPT: Pharmacometrics & Systems Pharmacology, 2020).

Read-outs that look alike come from different tables or passages of the source.

One data set can be described thus: PBPK model. More on the design: species or system human.
Another data set deals with T1, UGT2B4 (Homo sapiens, UniProt P06133).
T1 sequence (P06133 24-528): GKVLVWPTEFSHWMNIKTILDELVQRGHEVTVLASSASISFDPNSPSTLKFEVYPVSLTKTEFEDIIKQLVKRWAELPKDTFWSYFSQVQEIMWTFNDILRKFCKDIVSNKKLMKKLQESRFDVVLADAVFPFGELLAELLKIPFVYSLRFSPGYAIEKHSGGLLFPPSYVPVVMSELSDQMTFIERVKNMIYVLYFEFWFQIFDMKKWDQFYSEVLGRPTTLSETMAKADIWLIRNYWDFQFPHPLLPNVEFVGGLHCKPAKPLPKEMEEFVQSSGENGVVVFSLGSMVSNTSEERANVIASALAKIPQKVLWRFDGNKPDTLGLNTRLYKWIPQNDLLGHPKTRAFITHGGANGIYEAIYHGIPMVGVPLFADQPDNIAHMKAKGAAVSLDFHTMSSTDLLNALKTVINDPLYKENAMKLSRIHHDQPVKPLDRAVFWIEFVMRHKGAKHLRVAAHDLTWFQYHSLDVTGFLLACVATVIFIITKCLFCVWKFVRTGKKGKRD
As to the kind of experiment: Mefenamic acid inhibition of UGT2B4. Format: biochemical. To be noted: HLM, 1–100 µM.

The conditions of data set [1]: cited from earlier work.
Data set [2] deals with T2, UGT1A9 (Homo sapiens, UniProt O60656).
T2 sequence (O60656 26-530): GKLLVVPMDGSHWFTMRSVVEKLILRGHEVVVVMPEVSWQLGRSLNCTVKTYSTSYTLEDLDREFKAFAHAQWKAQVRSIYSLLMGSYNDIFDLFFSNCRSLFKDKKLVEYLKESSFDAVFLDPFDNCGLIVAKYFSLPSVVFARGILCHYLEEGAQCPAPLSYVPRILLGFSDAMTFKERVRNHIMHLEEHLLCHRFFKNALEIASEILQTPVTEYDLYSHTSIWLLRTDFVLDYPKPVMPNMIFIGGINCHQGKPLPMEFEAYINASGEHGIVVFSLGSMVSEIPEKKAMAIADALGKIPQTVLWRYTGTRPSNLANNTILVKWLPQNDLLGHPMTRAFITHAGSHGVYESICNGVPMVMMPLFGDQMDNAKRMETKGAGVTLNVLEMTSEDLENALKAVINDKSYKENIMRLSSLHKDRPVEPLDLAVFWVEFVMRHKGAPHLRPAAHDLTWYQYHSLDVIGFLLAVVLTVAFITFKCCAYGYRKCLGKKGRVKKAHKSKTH
Nature of the data set: In vivo Ki of MFA fitted in the PBPK model to the clinical MFA–dapagliflozin DDI. Particulars: UGT1A9 and UGT2B7, relative potencies kept.

The conditions of data set [3]: Simcyp input, cited from earlier work; for LogP: ref 42 (ertugliflozin), DrugBank 50 (dapagliflozin), DrugBank 49 (MFA).
For data set [4] the following is noted: probenecid 500-mg twice-daily dose.
The conditions of data set [5]: cited from earlier work. This is another data set of the same source.
Another data set deals with UGT. To be noted: ref 18 (ertugliflozin), 39 (dapagliflozin); cited from earlier work.
The next data set in a line: PBPK. Also noted: species or system human. To be noted: dapagliflozin with MFA.
The next data set deals with Caco‐2. To be noted: ref 17 (ertugliflozin), 46 (dapagliflozin); cited from earlier work.
For data set [6] the following is noted: human ADME study, ref 12 (ertugliflozin), 23 (dapagliflozin), cited from earlier work.
Data set [7] is described as follows: Human ADME study with 14C-labelled drug: excretion and metabolite recovery. The class given is in vivo. To be noted: human ADME study (ertugliflozin ref 12, dapagliflozin ref 23).
A further data set concerns CYP. Nature of the data set: Overall oxidative. The class given is in vitro ADME. To be noted: human, human liver microsomes (model input, not an incubation).
The conditions of data set [8]: blood/plasma ratio; ref 45 (ertugliflozin), 46 (dapagliflozin); cited from earlier work.
Data set [9] relates to UGT2B7 (UGT2B4/2B7 contribution assigned to UGT2B7). Nature of the data set: UGT2B4/2B7 contribution to metabolism. Particulars: human. Format: in vitro ADME, human.
The subject of data set [10] is UGT2B4/2B7. Nature of the data set: UGT2B4/2B7 contribution to metabolism. Format: in vitro ADME, human.
Data set [11] addresses T2, UGT1A9. As to the kind of experiment: UGT1A9 contribution to metabolism. The class given is in vitro ADME.
Data set [12] concerns UGT2B4/2B7. To be noted: cited from earlier work.
The mark [13] stands for this setting: dapagliflozin multiple oral dose 10 mg once daily.
Where [14] appears, read: dapagliflozin multiple oral dose 50 mg once daily.
The mark [15] stands for this setting: dapagliflozin single oral dose 10 mg.
Where [16] appears, read: dapagliflozin single oral dose 10 mg, geometric mean.
Setting [17] is: calculated from clinical ADME and reaction phenotyping data.

For the molecule `Cc1cccc(Nc2ccccc2C(=O)O)c1C` [MFA, mefenamic acid], in “PBPK model” (MFA single oral dose 500 mg), the “AUC predicted/ observed ratio” value is 0.89 and the “Cmax predicted/ observed ratio” value was 0.92. The “Inhibition of UGT2B4 in vitro” value at UGT2B4 is given as “did not inhibit”. Besides, in [1] (MFA single oral dose 500 mg), the “Observed AUCinf” value is recorded as 34200 ng·h/mL and the “Observed Cmax” value is 6900 ng/mL. Besides, the “Fold adjustment of in vitro to in vivo UGT Ki values (increased potency)” value on UGT1A9 [2] is given as ~ 2.9 fold. In addition, the LogP in [3] is given as 5.4. In addition, the pKa in data set [3] (ref DrugBank 49) is given as 3.89.

For the molecule `CCCN(CCC)S(=O)(=O)c1ccc(C(=O)O)cc1` [probenecid], the “estimated unbound maximum steady-state concentration (Cmax,ss,u)” value in data set [4] was 29 µM.

As to `Cc1ccc([C@@H]2O[C@H](CO)[C@@H](O)[C@H](O)[C@H]2O)cc1Cc1ccc(-c2ccc(F)cc2)s1` [canagliflozin], in data set [5] (co-administration with probenecid), the “Increase in canagliflozin exposure” value is 21%.

As to `CCOc1ccc(Cc2cc([C@@H]3O[C@H](CO)[C@@H](O)[C@H](O)[C@H]3O)ccc2Cl)cc1` [Dapagliflozin, dapagliflozin], the “AUC predicted/ observed ratio” value in the data set “PBPK model” (setting [13]) is on record as 1.06; in “PBPK model” (setting [14]), 1.06; in “PBPK model” (setting [15]), 0.92. Also, the “Cmax predicted/ observed ratio” value is recorded as 1.03 in the data set “PBPK model” (setting [13]), 0.84 in the data set “PBPK model” (setting [14]) and 0.87 in “PBPK model” (setting [15]). Further, the “Share of systemic UGT clearance occurring in the liver” value in the data set on UGT is listed as 90%. Also, the AUCR predicted/observed ratio in “PBPK” was 1.0. In addition, in “PBPK”, the CmaxR predicted/observed ratio was 1.0. Moreover, the “Increase in dapagliflozin exposure” value in data set [5] (co-administration with mefenamic acid) is listed as 51%. In the data set on Caco‐2, the “Caco‐2 permeability coefficient” value was 15.9 10^–6 cm/s. Further, the “Renal excretion of unchanged drug” value in data set [6] (% of dose) was 2%. Further, the Elimination by glucuronidation in data set [6] is 88%. Further, the “Elimination by oxidation (converted to oxidative metabolites)” value in data set [6] is given as 10%. For the same molecule, in [7], the “Fe observed (fraction excreted unchanged in urine)” value came to 0.02. In addition, the results for the microsomal CLint (in the data set on CYP; in data set [9]; on UGT1A9 [11] (human)) were 4 µL/min/mg, 3 µL/min/mg and 30 µL/min/mg, respectively. Besides, the volume of distribution (Vss) in data set [1] (after i.v. administration, ref 15 (ertugliflozin), 38 (dapagliflozin)) is given as 1.19 L/kg. The entries for the “Observed Cmax” value in [1] (setting [13]), in data set [1] (setting [14]) and in [1] (setting [16]) were 119 ng/mL, 728 ng/mL and 143 ng/mL, respectively. In addition, the “Observed AUCinf” value in data set [1] (setting [16]) was 628 ng·h/mL. For the same molecule, the CLiv in data set [1] (intravenous plasma clearance, ref 15 (ertugliflozin), 38 (dapagliflozin)) is 12.4 L/h. Besides, the “Absolute bioavailability (F)” value in data set [1] (oral, ref 15 (ertugliflozin), 38 (dapagliflozin)) is on record as 78%. Further, in data set [8], the B/P ratio was 0.88. For the same molecule, the “fm,UGT2B7 observed” value with UGT2B4/2B7 [10] (setting [17]) is reported as 0.09. Moreover, the “Remaining UGT metabolism assigned to UGT2B7” value with UGT2B4/2B7 [10] (remainder after UGT1A9 contribution) was 10%. Also, the LogP in data set [3] is 2.52. For the same molecule, on UGT1A9 [11] (setting [17]), the “fm,UGT1A9 observed” value is recorded as 0.79. Further, at UGT1A9 [11] (in vitro UGT reaction phenotyping of this paper (HLM with UGT1A9 inhibitors)), the “Relative contribution of UGT1A9 to UGT metabolism” value is 90%.

As for `Nc1nc(CC(=O)Nc2ccc(CCNC[C@H](O)c3ccccc3)cc2)cs1` [mirabegron], the “UGT2B7-mediated metabolism incorporated in PBPK model” value in the data set on UGT2B4/2B7 [12] is listed as ~ 30%.
